The record followed here is patent EP1137645B1, “ALPHA-METHYLBENZYL-CONTAINING THIOUREA INHIBITORS OF HERPES VIRUSES CONTAINING A […] GROUP” (Wyeth, priority 1998, dated 2000).

For test [1], the system named is HCMV recombinant mutant virus whose genome contains the prokaryotic beta-glucuronidase gene. Nature of the test: microbe, parasite or virus in culture. The conditions noted are these: for IC50: Human betaherpesvirus 5, Fibroblast. It counts as cell-based, human cytomegalovirus. The source says:
Microtiter plate assay. Ninety-six well plate cultures of human foreskin fibroblasts are infected in the presence of inhibitor compound with a HCMV recombinant mutant virus whose genome contains the prokaryotic beta-glucuronidase gene (Jefferson, R. A., S. M. Burgess, and D. Hirsh. 1986. Beta-glucuronidase from Escherichia coli as a gene fusion marker. Proc. Natl. Acad. Sci. USA 83:8447-8451) whose expression is controlled by a viral promoter. An example of such a virus is RV145 (Jones, T. R., V. P. Muzithras, and Y. Gluzman. 1991. Replacement mutagenesis of the human cytomegalovirus genome: US10 and US11 gene products are nonessential. J. Virol. 65:5860-5872). Since it is under the control of a viral promoter, beta-glucuronidase expression is an indirect indicator of growth and replication of HCMV in this assay. At 96 hours post-infection, the infected cell lysates are prepared (using 50mM sodium phosphate [pH7.0] containing 0.1% Triton X-100 and 0.1% sarkosyl) and assayed for beta-glucuronidase activity using a substrate for the enzyme which when cleaved yields either a product which can be measured colorimetrically in a spectrophotometer or fluorescently in a microfluorimeter. Examples of such substrates are p-nitrophenyl-beta-D-glucuronide and methylumbelliferylglucuronide, respectively. The presence of an antiviral compound is indicated by the reduced expression of the HCMV genome resident beta-glucuronidase gene, compared to the absence of inhibitor. […] Data from this assay generated using varying amounts of inhibitor compound is also used to estimate the IC50 of an inhibitor compound.

The subject of the next test is VZV strain Ellen. Nature of the test: VZV antiviral (ELISA) assay. It counts as cell-based. The method, then: For the generation of stock VZV to be used in the assay, VZV strain Ellen (ATCC #VR-1367) is used to infect human foreskin fibroblast (HFF) cells at low multiplicity (less than 0.1) and incubated overnight at 37°C in 5% CO2. After the overnight incubation, the mixture of uninfected and VZV-infected HFF infected cells are then harvested and added to each well of 96-well plates (3.5x10^4 cells in 100 µl DMEM supplemented with 2% FBS) which contain test compound or the reference standard drug control (in 100µl DMEM supplemented with 2% FBS per well). These cells are incubated for three days at 37°C in 5% CO2, then fixed for ELISA assay. The primary antibody is murine anti-VZV glycoprotein II monoclonal antibody (Applied Biosystems, Inc. #13-145-100) and the secondary antibody is goat anti-mouse IgG linked to β-galactosidase. Thus the extent of viral replication is determined by assessing β-galactosidase activity by quantifying the generation of the 4-methyl umbelliferone fluorescent cleavage product after addition of the methyl umbelliferyl-β-D-galactoside (Sigma #M1633) substrate on a microfluorimeter (365nm for excitation and 450nm for emission). Antiviral activity (IC50) of the test compound is determined by comparing the flourescence obtained in absence of compound to that obtained in the presence of compound.
For orientation: An ELISA detects its analyte on a solid surface through an enzyme-linked reagent.

Where [2] appears, read: read-out: IC50 ug/ml HCMV, HCMV, human foreskin fibroblasts.
Setting [3] is: Human alphaherpesvirus 3, HFF, read-out: IC50 (ug/ml) VZV, VZV strain Ellen, HFF cells, ELISA.
The mark [4] stands for this setting: Human alphaherpesvirus 3, VZV strain Ellen, HFF cells, ELISA, read-out: IC50 (ug/ml) VZV.

Converted amounts (≈) assume the structure as drawn. Where two headings read alike, the source gives them in different places.

As for `O=C(Nc1ccc(NC(=S)Nc2cc(N3CCCC3)cc(C(F)(F)F)c2)cc1)c1ccccc1F` [Example 566, 2-Fluoro-N-{4-[3-(3-pyrrolidin-1-yl-5-trifluoromethyl-phenyl)-thioureido]-phenyl}-benzamide], the IC50 in test [1] (setting [2]) was greater than 0.5 µg/mL; in the test on VZV strain Ellen (setting [3]), 2 µg/mL (≈ 3.98 µM).

For `CN(C)c1cc(NC(=S)Nc2ccc(NC(=O)c3ccccc3F)cc2)cc(C(F)(F)F)c1` [Example 567, N-{4-[3-(3-Dimethylamino-5-trifluoromethyl-phenyl)-thioureido]-phenyl}-2-fluoro-benzamide], the IC50 in test [1] (read-out: IC50 ug/ml HCMV) is greater than 0.5 µg/mL; with VZV strain Ellen (setting [4]), 2 µg/mL (≈ 4.2 µM).

For `O=C(Nc1ccc(NC(=S)Nc2cc(N3CCOCC3)cc(C(F)(F)F)c2)cc1)c1ccccc1F` [Example 568, 2-Fluoro-N-{4-[3-(3-morpholin-4-yl-5-trifluoromethyl-phenyl)-thioureido]-phenyl}-benzamide], the IC50 in test [1] (setting [2]) is greater than 0.5 µg/mL; in the test on VZV strain Ellen (setting [3]), 2.3 µg/mL (≈ 4.44 µM).

As for `CN1CCN(c2cc(NC(=S)Nc3ccc(NC(=O)c4ccccc4F)cc3)cc(C(F)(F)F)c2)CC1` [Example 569, 2-Fluoro-N-(4-{3-[3-(4-methyl-piperazin-1-yl)-5-trifluoromethyl-phenyl]-thioureido}-phenyl)-benzamide], the results for the IC50 (in test [1] (setting [2]); in the test with VZV strain Ellen (setting [3])) were greater than 0.5 µg/mL and 3 µg/mL (≈ 5.64 µM), respectively.

On to `O=C(Nc1ccc(NC(=S)Nc2cc(N3CCCCC3)cc(C(F)(F)F)c2)cc1)c1ccccc1F` [Example 570, 2-Fluoro-N-{4-[3-(3-piperidin-1-yl-5-trifluoromethyl-phenyl)-thioureido]-phenyl}-benzamide], for which the figures for the IC50 (in test [1] (setting [2]); in the test with VZV strain Ellen (setting [3])) were greater than 0.5 µg/mL and greater than 10 µg/mL, respectively.

Turning to `O=C(Nc1ccc(NC(=S)NCCc2ccccc2)cc1)c1ccccc1F` [Example 576, 2-Fluoro-N-[4-(3-phenethyl-thioureido)-phenyl]-benzamide], the IC50 in test [1] (read-out: IC50 ug/ml HCMV) is greater than 0.5 µg/mL; with VZV strain Ellen (setting [4]), 8 µg/mL (≈ 20.3 µM).

For `CCC(C)Cc1cc(NC(=S)Nc2ccc(NC(=O)c3ccccc3F)cc2)cc(C(F)(F)F)c1` (stereo not drawn) [Example 577, 2-Fluoro-N-(4-{3-[3-(2-methyl-butyl)-5-trifluoromethyl-phenyl]-thioureido}-phenyl)-benzamide], the IC50 in the test with VZV strain Ellen (setting [3]) is greater than 7.5 µg/mL.

For the compound `CC(C)Cc1cc(NC(=S)Nc2ccc(NC(=O)c3ccccc3F)cc2)cc(C(F)(F)F)c1` [Example 578, 2-Fluoro-N-{4-[3-(3-isobutyl-5-trifluoromethyl-phenyl)-thioureido]-phenyl}-benzamide], the IC50 with VZV strain Ellen (setting [3]) was greater than 10 µg/mL.

Turning to `O=C(Nc1ccc(NC(=S)NCc2cc(F)cc(F)c2)cc1)c1ccccc1F` [Example 580, N-{4-[3-(3,5-Difluoro-benzyl)-thioureido]-phenyl}-2-fluoro-benzamide], in the test with VZV strain Ellen (setting [4]), the IC50 is greater than 10 µg/mL.

Consider `O=C(Nc1ccc(NC(=S)NCc2cc(Cl)cc(Cl)c2)cc1)c1ccccc1F` [Example 583, N-{4-[3-(3,5-Dichloro-benzyl)-thioureido]-phenyl}-2-fluoro-benzamide], for which, in the test with VZV strain Ellen (setting [3]), the IC50 was found to be 10 µg/mL (≈ 22.3 µM).

As for `O=C(Nc1ccc(NC(=S)NCc2cc(F)cc(C(F)(F)F)c2)cc1)c1ccccc1F` [Example 586, 2-Fluoro-N-{4-[3-(3-fluoro-5-trifluoromethyl-benzyl)-thioureido]-phenyl}-benzamide], in the test on VZV strain Ellen (setting [4]), the IC50 is greater than 10 µg/mL.

As for `CN(C)c1ccc(CNC(=S)Nc2ccc(NC(=O)c3ccccc3F)cc2)cc1C(F)(F)F` [Example 610, N-{4-[3-(4-Dimethylamino-3-trifluoromethyl-benzyl)-thioureido]-phenyl}-2-fluoro-benzamide], the IC50 in test [1] (setting [2]) is greater than 0.5 µg/mL; in the test with VZV strain Ellen (setting [3]), greater than 10 µg/mL.

Turning to `O=C(Nc1ccc(NC(=S)NCc2ccc(N3CCCCC3)c(C(F)(F)F)c2)cc1)c1ccccc1F` [Example 616, 2-Fluoro-N-{4-[3-(4-piperidin-1-yl-3-trifluoromethyl-benzyl)-thioureido]-phenyl}-benzamide], the IC50 in the test on VZV strain Ellen (setting [3]) was greater than 10 µg/mL.

In the case of `O=C(Nc1ccc(NC(=S)NCc2ccc(F)c(C(F)(F)F)c2)cc1)c1ccccc1F` [Example 623, 2-Fluoro-N-{4-[3-(4-fluoro-3-trifluoromethyl-benzyl)-thioureido]-phenyl}-benzamide], in the test with VZV strain Ellen (setting [4]), the IC50 was greater than 10 µg/mL.

In the case of `O=C(Nc1ccc(NC(=S)NCCOc2ccccc2)cc1)c1ccccc1F` [Example 625, 2-Fluoro-N-{4-[3-(2-phenoxy-ethyl)-thioureido]-phenyl}-benzamide], the IC50 in the test on VZV strain Ellen (setting [4]) was determined as 4 µg/mL (≈ 9.77 µM).

On to `CC(NC(=S)Nc1ccc(NC(=O)c2ccccc2I)cc1)c1ccc(F)cc1` (stereo not drawn) [Example 812, N-(4-{3-[1-(4-Fluoro-phenyl)-ethyl]-thioureido}-phenyl)-2-iodo-benzamide], for which the IC50 in the test with VZV strain Ellen (setting [4]) stood at 3.4 µg/mL (≈ 6.55 µM).

Regarding `CN1CCC(N(C)c2ccc(NC(=S)Nc3ccc(NC(=O)c4ccccc4F)cc3)cc2Cl)CC1` [Example 855, N-[4-(3-{3-Chloro-4-[methyl-(1-methyl-piperidin-4-yl)-amino]-phenyl}-thioureido)-phenyl]-2-fluoro-benzamide], the “IC50 ug/ml HCMV” value in test [1] (HCMV, human foreskin fibroblasts) stood at 0.7 µg/mL (≈ 1.33 µM). For the same compound, the inhibition at 10 µg/mL in the test on VZV strain Ellen (Human alphaherpesvirus 3, read-out: % inhibition 10 ug/ml VZV, 10 ug/ml, VZV strain Ellen, HFF cells, ELISA) turned out to be 52%. In the test with VZV strain Ellen (setting [4]), the IC50 was greater than 10 µg/mL.

As for `CC(NC(=S)Nc1ccc(NC(=O)c2cc3ccccc3cn2)cc1)c1ccc(F)cc1` (stereo not drawn) [Example 984, Isoquinoline-3-carboxylic acid (4-{3-[1-(4-fluoro-phenyl)-ethyl]-thioureido}-phenyl)-amide], the IC50 is 1.5 µg/mL (≈ 3.37 µM) in test [1] (setting [2]) and 0.08 µg/mL (≈ 0.18 µM) with VZV strain Ellen (setting [3]).

In the case of `CC(NC(=S)Nc1ccc(NC(=O)c2ccccc2C(F)(F)F)cc1)c1ccc(F)cc1` (stereo not drawn) [Example 992, N-(4-{3-[1-(4-Fluoro-phenyl)-ethyl]-thioureido}-phenyl)-2-trifluoromethyl-benzamide], the figures for the IC50 (in test [1] (read-out: IC50 ug/ml HCMV); with VZV strain Ellen (setting [4])) were 4 µg/mL (≈ 8.67 µM) and 1.2 µg/mL (≈ 2.6 µM), respectively.

As for `CC(NC(=S)Nc1ccc(NC(=O)c2ccccc2C#N)cc1)c1ccc(F)cc1` (stereo not drawn) [Example 993, 2-Cyano-N-(4-{3-[1-(4-fluoro-phenyl)-ethyl]-thioureido}-phenyl)-benzamide], the IC50 in the test with VZV strain Ellen (setting [4]) was determined as 2.7 µg/mL (≈ 6.45 µM).

As for `C[C@@H](NC(=S)Nc1ccc(NC(=O)c2ccccc2F)cc1)c1ccc(Br)cc1` [Example 1005, N-(4-{3-[(1R)-1-(4-Bromo-phenyl)-ethyl]-thioureido}-phenyl)-2-fluoro-benzamide], the IC50 in test [1] (setting [2]) was determined as 2.1 µg/mL (≈ 4.45 µM); with VZV strain Ellen (setting [3]), 4.3 µg/mL (≈ 9.1 µM).

Consider `CC(NC(=S)Nc1ccc(NC(=O)c2ccccc2F)cc1)c1ccc(Br)cc1` (stereo not drawn) [Example 1102, N-(4-{3-[1-(4-Bromo-phenyl)-ethyl]-thioureido}-phenyl)-2-fluoro-benzamide], for which the values for the IC50 (in test [1] (setting [2]); in the test on VZV strain Ellen (setting [3])) were 1.7 µg/mL (≈ 3.6 µM) and 0.2 µg/mL (≈ 0.423 µM), respectively.

Regarding `C[C@H](NC(=S)Nc1ccc(NC(=O)c2ccc(F)cc2)cc1)c1ccc(Br)cc1` [Example 1103, N-(4-{3-[(1S)-1-(4-Bromo-phenyl)-ethyl]-thioureido}-phenyl)-4-fluoro-benzamide], the IC50 in test [1] (setting [2]) is 3.4 µg/mL (≈ 7.2 µM); in the test with VZV strain Ellen (setting [3]), 0.47 µg/mL (≈ 0.995 µM).

For `COc1ccccc1C(=O)Nc1ccc(NC(=S)N[C@@H](C)c2ccc(Br)cc2)cc1` [Example 1104, N-(4-{3-[(1S)-1-(4-Bromo-phenyl)-ethyl]-thioureido}-phenyl)-2-methoxy-benzamide], the figures for the IC50 (in test [1] (setting [2]); with VZV strain Ellen (setting [3])) were 4.9 µg/mL (≈ 10.1 µM) and 0.09 µg/mL (≈ 0.186 µM), respectively.

Turning to `COc1ccccc1C(=O)Nc1ccc(NC(=S)N[C@H](C)c2ccc(Br)cc2)cc1` [Example 1105, N-(4-{3-[(1R)-1-(4-Bromo-phenyl)-ethyl]-thioureido}-phenyl)-2-methoxy-benzamide], the results for the IC50 (in test [1] (setting [2]); in the test on VZV strain Ellen (setting [3])) were 2.5 µg/mL (≈ 5.16 µM) and greater than 7.5 µg/mL, respectively.

With `CC(NC(=S)Nc1ccc(NC(=O)c2ccccc2F)cc1)c1ccc(C(F)(F)F)cc1F` (stereo not drawn) [Example 1106, 2-fluoro-N-(4-{[({1-[2-fluoro-4-(trifluoromethyl)phenyl]ethyl}amino)carbothioyl]amino}phenyl)benzamide], the IC50 in test [1] (read-out: IC50 ug/ml HCMV) is 1.1 µg/mL (≈ 2.29 µM); in the test with VZV strain Ellen (setting [4]), greater than 7.5 µg/mL.

Consider `C[C@H](NC(=S)Nc1ccc(NC(=O)c2nccc3ccccc23)cc1)c1ccc(Br)cc1` [Example 1107, Isoquinoline-1-carboxylic acid (4-{3-[(1S)-1-(4-bromo-phenyl)-ethyl]-thioureido}-phenyl)-amide], for which the IC50 was 8.1 µg/mL (≈ 16 µM) in test [1] (setting [2]) and 0.05 µg/mL (≈ 0.0989 µM) with VZV strain Ellen (setting [3]).
